The text below walks through data of patent US8916708B2, “Urea derivatives and their therapeutic use in the treatment of, inter alia, diseases of the respiratory tract” (Chiesi Farmaceutici S.p.A., priority 2010, dated 2014).

For assay [1], the target named is T1, Human recombinant p38 enzyme (p38α) (Homo sapiens, UniProt Q16539).
T1 construct: purchased Calbiochem 559324; host or cells: E. coli
The experiment in a line: p38 Kinase Assay (ATF-2 phosphorylation ELISA). The class given is biochemical. Conditions: 2h pre-incubation with p38 kinase, ATP 250 μM, 1% DMSO; read-out: p38α inhibition (IC50). The method, then: Human recombinant p38 enzyme expressed in E. coli and activated by incubation with MKK6 enzyme (Calbiochem #559324) is used as source of enzyme activity.
The assay is carried in high binding, clear, flat bottom 96 well assay plates which have been coated with recombinant ATF-2 (Biosource #PHF0043). Test compounds are incubated with p38 kinase for 2h prior to initiating the kinase assay by the addition of ATP to obtain an assay concentration of 250 μM . Phosphorylation of ATF-2 is detected and quantified using an ELISA. This consists of sequential incubation in the presence of anti-phospho-ATF2, biotinylated anti-IgG and streptavidin-HRP. Incubation with an HRP chromogenic substrate (TMB) results in absorbance that is proportional to the amount of phosphorylated substrate produced. Absorbance is detected using a multiwell plate reader.
Compounds are diluted in DMSO prior to addition to assay buffer, the final DMSO concentration in the assay being 1%.
The IC50 is defined as the concentration at which a given compound achieves 50% inhibition of control.
For orientation: ELISA stands for enzyme-linked immunosorbent assay.

For assay [2], the system named is LPS activated THP-1 cells (TNFα release). The experiment in a line: p38 Functional Assay: TNFα release from LPS activated THP-1 cells. It is filed as cell-based. Conditions: Homo sapiens, inhibition of TNFα release, 1h pre-treatment then LPS, 0.3% DMSO. As for the experimental part:
Inhibition of cellular p38 depresses the release of TNFα, a functional response which is quantified by measurement of the amount of TNFα in the supernatants of LPS activated THP-1 cells (an immortalised monocytic cell line) or peripheral blood mononuclear cells (PBMC's) isolated from freshly drawn human blood.
Cells seeded in 96 well plates are pre-treated by the addition of p38 inhibitors for 1h followed by addition of lipopolysaccharide (LPS) to activate cytokine production and release. The amount of TNFα released into the cell supernatants is quantified using an R&D Systems enzyme linked immunosorbant assay (ELISA) kit (product DY210) following the manufacturers instructions.
Compounds are diluted in DMSO prior to addition, the final DMSO concentration in the assay being 0.3%. The EC50 is defined as the concentration at which a given compound achieves 50% inhibition of the control.

T1 sequence (Q16539 whole entry): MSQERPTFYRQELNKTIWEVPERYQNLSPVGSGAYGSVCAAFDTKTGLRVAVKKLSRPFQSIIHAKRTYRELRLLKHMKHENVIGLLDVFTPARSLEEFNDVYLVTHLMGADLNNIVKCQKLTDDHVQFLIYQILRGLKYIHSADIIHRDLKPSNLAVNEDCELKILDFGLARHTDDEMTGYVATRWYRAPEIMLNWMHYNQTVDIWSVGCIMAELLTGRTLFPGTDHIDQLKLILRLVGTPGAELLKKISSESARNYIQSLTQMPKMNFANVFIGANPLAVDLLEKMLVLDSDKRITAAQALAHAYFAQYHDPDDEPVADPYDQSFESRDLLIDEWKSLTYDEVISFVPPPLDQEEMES

For `CC(C)c1nnc2ccc(O[C@H]3CC[C@H](NC(=O)Nc4cc(C(C)(C)C)on4)c4ccccc43)cn12` [Example 16, 1-(5-tert-Butyl-isoxazol-3-yl)-3-[(1S,4S)-4-(3-isopropyl-[1,2,4]-triazolo[4,3-a]pyridin-6-yloxy)-1,2,3,4-tetrahydro-naphthalen-1-yl]-urea], in assay [1], the IC50 was < 10 nM.

Consider `Cc1ccc(-n2nc(C(C)(C)C)cc2NC(=O)N[C@H]2C[C@@H](Oc3ccc4nnc(C(C)C)n4c3)c3ccccc32)cc1` [Example 15, 1-(5-tert-Butyl-2-p-tolyl-2H-pyrazol-3-yl)-3-[(1S,3R)-3-(3-isopropyl-[1,2,4]triazolo[4,3-a]pyridin-6-yloxy)-indan-1-yl]-urea], for which, in assay [1], the IC50 is 500 to 7000 nM.

As to `Cc1ccc(-n2nc(C(C)(C)C)cc2NC(=O)N[C@H]2CC[C@@H](Oc3ccc4nnc(-c5c(Cl)cccc5Cl)n4c3)c3ccccc32)cc1` (racemic) [Example 4, (+/−)1-(5-tert-Butyl-2-p-tolyl-2H-pyrazol-3-yl)-3-{4-[3-(2,6-dichloro-phenyl)[1,2,4]triazolo[4,3-a]pyridin-6-yloxy]-cis-1,2,3,4-tetrahydro-naphthalen-1-yl}-urea], in assay [2], the EC50 was < 10 nM. In addition, in assay [1], the IC50 is < 10 nM.

As for `Cc1ccc(-n2nc(C(C)(C)C)cc2NC(=O)N[C@H]2CC[C@@H](Oc3ccc4nnc(C(C)C)n4c3)c3ccccc32)cc1` (racemic) [Example 1, (+/−) 1-(5-tert-Butyl-2-p-tolyl-2H-pyrazol-3-yl)-3-[4-(3-isopropyl-[1,2,4]-triazolo[4,3-a]pyridin-6-yloxy)-cis-1,2,3,4-tetrahydro-naphthalen-1-yl]-urea], the EC50 in assay [2] is < 10 nM. The IC50 in assay [1] is < 10 nM.

`Cc1ccc(-n2nc(C(C)(C)C)cc2NC(=O)N[C@@H]2CC[C@@H](Oc3ccc4nnc(C(C)C)n4c3)c3ccccc32)cc1` [Example 8, 1-(5-tert-Butyl-2-p-tolyl-2H-pyrazol-3-yl)-3-[(1R,4R)-4-(3-isopropyl-[1,2,4]triazolo[4,3-a]pyridin-6-yloxy)-1,2,3,4-tetrahydro-naphthalen-1-yl]-urea]: the IC50 in assay [1] was in the range of 100 to 500 nM.

Regarding `COc1c(NC(=O)N[C@H]2CC[C@H](Oc3ccc4nnc(C(C)C)n4c3)c3ccccc32)cc(C(C)(C)C)cc1NS(C)(=O)=O` [Example 17, N-(5-tert-Butyl-3-{3-[(1S,4S)-4-(3-isopropyl-[1,2,4]triazolo[4,3-a]pyridin-6-yloxy)-1,2,3,4-tetrahydro-naphthalen-1-yl]-ureido}-2-methoxy-phenyl)-methanesulfonamide], the IC50 in assay [1] is < 10 nM.

Turning to `Cc1ccc(-n2nc(C(C)(C)C)cc2NC(=O)N[C@@H]2C[C@@H](Oc3ccc4nnc(C(C)C)n4c3)c3ccccc32)cc1` [Example 12, 1-(5-tert-Butyl-2-p-tolyl-2H-pyrazol-3-yl)-3-[(1R,3R)-3-(3-isopropyl[1,2,4]triazolo[4,3a]pyridin-6-yloxy)-indan-1-yl]urea], the IC50 in assay [1] was in the range of 100 to 500 nM.

Regarding `Cc1ccc(-n2nc(C(C)(C)C)cc2NC(=O)N[C@@H]2C[C@H](Oc3ccc4nnc(C(C)C)n4c3)c3ccccc32)cc1` [Example 14, 1-(5-tert-Butyl-2-p-tolyl-2H-pyrazol-3-yl)-3-[(1R,3S)-3-(3-isopropyl-[1,2,4]-triazolo[4,3-a]pyridin-6-yloxy)-indan-1-yl]-urea], the IC50 in assay [1] lay in the range of 500 to 7000 nM.

Consider `Cc1ccc(-n2nc(C(C)(C)C)cc2NC(=O)N[C@H]2CC[C@@H](Oc3ccc4nnc(C(C)C)n4c3)c3ccccc32)cc1` [Example 10, 1-(5-tert-Butyl-2-p-tolyl-2H-pyrazol-3-yl)-3-[(1S,4R)-4-(3-isopropyl-[1,2,4]triazolo[4,3-a]pyridin-6-yloxy)-1,2,3,4-tetrahydro-naphthalen-1-yl]-urea], for which the half-maximal effective concentration (EC50) in assay [2] was < 10 nM. Moreover, the IC50 in assay [1] was < 10 nM.

On to `Cc1ccc(-n2nc(C(C)(C)C)cc2NC(=O)N[C@H]2CCC[C@H](Oc3ccc4nnc(C(C)C)n4c3)c3ccccc32)cc1` (racemic) [Example 19, (+/−) 1-(5-tert-Butyl-2-p-tolyl-2H-pyrazol-3-yl)-3-[9-(3-isopropyl-[1,2,4]triazolo[4,3-a]pyridin-6-yloxy)-trans-6,7,8,9-tetrahydro-5H-benzocyclohepten-5-yl]-urea], for which, in assay [1], the IC50 was 10 to 100 nM.

In the case of `COCC(=O)Nc1cc(CO[C@H]2CC[C@H](NC(=O)Nc3cc(C(C)(C)C)nn3-c3ccc(C)cc3)c3ccccc32)ccn1` [Example 22, N-(4-{(1S,4S)-4-[3-(5-tert-Butyl-2-p-tolyl-2H-pyrazol-3-yl)-ureido]-1,2,3,4-tetrahydro-naphthalen-1-yloxymethyl}-pyridin-2-yl)-2-methoxy-acetamide], in assay [1], the IC50 is < 10 nM.

As to `Cc1ccc(-n2nc(C(C)(C)C)cc2NC(=O)N[C@H]2CC[C@@H](Oc3ccc4nnc(-c5ccccc5OCc5ccccc5)n4c3)c3ccccc32)cc1` (racemic) [Example 5], in assay [1], the IC50 was 10 to 100 nM.

Regarding `Cc1ccc(-n2nc(C(C)(C)C)cc2NC(=O)N[C@H]2CC[C@H](Oc3ccc4nnc(C(C)C)n4c3)c3ccccc32)cc1` (racemic) [Example 2, (+/−) 1-(5-tert-Butyl-2-p-tolyl-2H-pyrazol-3-yl)-3-[4-(3-isopropyl[1,2,4]triazolo[4,3-a]pyridin-6-yloxy)-trans-1,2,3,4-tetrahydro-naphthalen-1-yl]-urea], the concentration giving a half-maximal response (EC50) in assay [2] is < 10 nM. Further, the IC50 in assay [1] was < 10 nM.

Take `Cc1ccc(-n2nc(C(C)(C)C)cc2NC(=O)N[C@H]2CC[C@H](Oc3ccc4nnc(C(C)C)n4c3)c3ccccc32)cc1` [Example 11, 1-(5-tert-Butyl-2-p-tolyl-2H-pyrazol-3-yl)-3-[(1S,4S)-4-(3-isopropyl-[1,2,4]triazolo[4,3-a]pyridin-6-yloxy)-1,2,3,4-tetrahydro-naphthalen-1-yl]-urea]: the EC50 in assay [2] was < 10 nM. Moreover, in assay [1], the IC50 was < 10 nM.

For `Cc1ccc(-n2nc(C(C)(C)C)cc2NC(=O)N[C@H]2CCC[C@@H](Oc3ccc4nnc(C(C)C)n4c3)c3ccccc32)cc1` (racemic) [Example 18, (+/−) 1-(5-tert-Butyl-2-p-tolyl-2H-pyrazol-3-yl)-3-[9-(3-isopropyl-[1,2,4]triazolo[4,3-a]pyridin-6-yloxy)-cis-6,7,8,9-tetrahydro-5H-benzocyclohepten-5-yl]-urea], the IC50 in assay [1] was in the range of 10 to 100 nM.

With `Cc1ccc(-n2nc(C(C)(C)C)cc2NC(=O)N[C@@H]2CC[C@H](Oc3ccc4nnc(C(C)C)n4c3)c3ccccc32)cc1` [Example 9, 1-(5-tert-Butyl-2-p-tolyl-2H-pyrazol-3-yl)-3-[(1R,4S)-4-(3-isopropyl-[1,2,4]triazolo[4,3-a]pyridin-6-yloxy)-1,2,3,4-tetrahydro-naphthalen-1-yl]-urea], the IC50 in assay [1] is 100 to 500 nM.

Take `Cc1ccc(-n2nc(C(C)(C)C)cc2NC(=O)N[C@H]2C[C@H](Oc3ccc4nnc(C(C)C)n4c3)c3ccccc32)cc1` [Example 13, 1-(5-tert-Butyl-2-p-tolyl-2H-pyrazol-3-yl)-3-[(1S,3S)-3-(3-isopropyl-[1,2,4]triazolo[4,3-a]pyridin-6-yloxy)-indan-1-yl]-urea]: the IC50 in assay [1] is < 10 nM.

Take `Cc1ccc(-n2nc(C(C)(C)C)cc2NC(=O)N[C@H]2CC[C@H](Oc3ccc4nnc(-c5ccccc5SCCO)n4c3)c3ccccc32)cc1` [Example 20, 1-(5-tert-Butyl-2-p-tolyl-2H-pyrazol-3-yl)-3-((1S,4S)-4-{3-[2-(2-hydroxy-ethylsulfanyl)-phenyl]-[1,2,4]triazolo[4,3-a]pyridin-6-yloxy}-1,2,3,4-tetrahydro-naphthalen-1-yl)-urea]: the IC50 in assay [1] was < 10 nM.

Take `Cc1ccc(-n2nc(C(C)(C)C)cc2NC(=O)N[C@H]2CC[C@@H](Oc3ccc4nnc(-c5ccccc5Cl)n4c3)c3ccccc32)cc1` (racemic) [Example 3, (+/−)1-(5-tert-Butyl-2-p-tolyl-2H-pyrazol-3-yl)-3-{4-[3-(2-chloro-phenyI)-[1,2,4]triazolo[4,3-a]pyridin-6-yloxy]-cis-1,2,3,4-tetrahydro-naphthalen-1-yl}-urea]: the EC50 in assay [2] was < 10 nM. Besides, in assay [1], the IC50 was < 10 nM.

`CC(C)c1nnc2ccc(O[C@@H]3CC[C@H](NC(=O)Nc4cc(C(C)(C)C)on4)c4ccccc43)cn12` (racemic) [Example 6, (+/−) 1-(5-tert-Butyl-isoxazol-3-yl)-3-[4-(3-isopropyl-[1,2,4]triazolo[4,3-a]pyridin-6-yloxy)-cis-1,2,3,4-tetrahydro-naphthalen-1-yl]-urea]: the EC50 in assay [2] is < 10 nM. Also, the IC50 in assay [1] is < 10 nM.

Take `Cc1ccc(-n2nc(C(C)(C)C)cc2NC(=O)N[C@H]2CC[C@@H](Oc3ccc4nnc(-c5ccccc5O)n4c3)c3ccccc32)cc1` (racemic) [Example 7, (+/−) 1-(5-tert-Butyl-2-p-tolyl-2H-pyrazol-3-yl)-3-{4-[3-(2-hydroxy-phenyl) [1,2,4]triazolo[4,3-a]pyridin-6-yloxy]-cis-1,2,3,4-tetrahydro-naphthalen-1-yl}-urea]: in assay [2], the EC50 was < 10 nM. In assay [1], the IC50 was < 10 nM.

By IC50 is commonly meant the concentration at which inhibition is half-maximal. As usually defined, the EC50 is the concentration needed to bring the measured effect to its halfway point.
